Results published in patent US4668630A, “Stabilized enzymatic composition” (Beckman Instruments, Inc., priority 1984, dated 1987).
Counter-ions that a name gives are not always drawn.

Tested on: lactate dehydrogenase (LD)
Experiment: LD activity of serial dilution samples on Roche Cobas UV clinical analyzer
Format: biochemical, human
Details: Table II, 1-20 mg/ml KO2 CCO2 K in LD SEG
Procedure: Aliquots of this base solution were diluted as shown in Table I with a LD SEG solution devoid of KO2 CCO2 K. The LD activity of each of the serial dilution samples was measured on a Roche Cobas brand UV clinical analyzer and the results are set forth in Table II.

effect on LD activity (in words): inhibition of LD activity
Compound: O=C(O)C(=O)O [KO2 CCO2 K, potassium oxalate]
